# ChEMBL document CHEMBL4840352 (J Med Chem, 2021)
# The source made the active and inactive calls. The calls are words filed in the database; no cut-off is given here.
# Columns and labels:
# MV4-11 [1] = test: Antiproliferative activity against human MV4-11 cells incubated for 48 hrs by CCK-8 assay; format: functional, cell-based; conditions: MV4-11, 48 h
# MOLM-13 [2] = test: Antiproliferative activity against human MOLM-13 cells incubated for 48 hrs by CCK-8 assay; format: functional, cell-based; conditions: MOLM-13, 48 h
# [3] = molecular target: Mast/stem cell growth factor receptor Kit (Homo sapiens) (UniProt P10721); test: Induction of KIT degradation in human MOLM-13 cells at 0 to 25 nM after 24 hrs by Western blot analysis; format: cell-based; conditions: dose 0-25 nM
# MV4-11 [4] = test: Induction of apoptosis in human MV4-11 cells after 48 hrs by Annexin-V/PI staining based flow cytometry; format: functional, cell-based; conditions: dose 1.25-10 nM
# MV4-11 [5] = test: Induction of apoptosis in human MV4-11 cells assessed as upregulation of cleaved caspase-3 level at 15 nM by Western blot analysis; format: functional, cell-based; conditions: time 0-12 hrs, TDE = time-dependent effect
# MV4-11 [6] = test: Induction of apoptosis in human MV4-11 cells assessed as downregulation of Mcl-1 level at 15 nM measured upto 12 hrs by Western blot analysis; format: functional, cell-based; conditions: time hrs <=12
# [7] = molecular target: Receptor-type tyrosine-protein kinase FLT3 (Homo sapiens) (UniProt P36888); test: Inhibition of FLT3 in human MV4-11 cells assessed as reduction in ERK phosphorylation at 15 nM by Western blot analysis; format: cell-based; conditions: time 0-12 hrs, TDE = time-dependent effect
# [8] = molecular target: Receptor-type tyrosine-protein kinase FLT3 (Homo sapiens) (UniProt P36888); test: Inhibition of FLT3 in human MV4-11 cells assessed as reduction in FLT3 phosphorylation at 15 nM by Western blot analysis; format: cell-based; conditions: time 0-12 hrs, TDE = time-dependent effect
# [9] = molecular target: Receptor-type tyrosine-protein kinase FLT3 (Homo sapiens) (UniProt P36888); test: Inhibition of FLT3 in human MV4-11 cells assessed as reduction in STAT5 phosphorylation at 15 nM by Western blot analysis; format: cell-based; conditions: time 0-12 hrs, TDE = time-dependent effect
# MV4-11 [10] = test: Induction of apoptosis in human MV4-11 cells assessed as downregulation of Bcl-2 level at 15 nM measured upto 12 hrs by Western blot analysis; format: functional, cell-based; conditions: time hrs <=12
# [11] = molecular target: Mast/stem cell growth factor receptor Kit (Homo sapiens) (UniProt P10721); test: Inhibition of KIT in human MV4-11 cells assessed as reduction in STAT3 phosphorylation at 5 to 25 nM after 24 hrs by Western blot analysis; format: cell-based; conditions: dose 5-25 nM
# MV4-11 [12] = test: Reduction in intracellular ROS level in human MV4-11 cells measured after 12 hrs by DCFH-DA probe based flow cytometry; format: functional, cell-based; conditions: dose 25-200 nM
# [13] = molecular target: Platelet-derived growth factor receptor beta (Homo sapiens) (UniProt P09619); test: Induction of PDGFR degradation in human MOLM-13 cells at 0 to 25 nM after 24 hrs by Western blot analysis; format: cell-based; conditions: dose 0-25 nM
# MOLM-13 [14] = test: Induction of apoptosis in human MOLM-13 cells assessed as downregulation of Bcl-2 level at 15 nM measured upto 12 hrs by Western blot analysis; format: functional, cell-based; conditions: time hrs <=12
# [15] = test system: Receptor-type tyrosine-protein kinase FLT3 (Homo sapiens), P36888 [UNDEFINED MUTATION]; test: Induction of FLT3-ITD degradation in human MV4-11 cells at 20 nM pretreated with pomalidomide for 2 hrs followed compound addition for 6 hrs by Western blot analysis; format: cell-based
# [16] = test system: Receptor-type tyrosine-protein kinase FLT3 (Homo sapiens), P36888 [UNDEFINED MUTATION]; test: Induction of FLT3-ITD degradation in human MV4-11 cells assessed as accumulation of ubiquitinated FLT3-ITD at 15 nM preincubated for 4 hrs followed by MG132 addition for 2 hrs by immunoprecipitation assay; format: cell-based; conditions: time 6.0 hrs
# [17] = test system: Receptor-type tyrosine-protein kinase FLT3 (Homo sapiens), P36888 [UNDEFINED MUTATION]; test: Induction of FLT3-ITD degradation in human MV4-11 cells at 20 nM pretreated with dov for 2 hrs followed compound addition for 6 hrs by Western blot analysis; format: cell-based
# [18] = molecular target: Receptor-type tyrosine-protein kinase FLT3 (Homo sapiens) (UniProt P36888); test: Inhibition of FLT3 in human MOLM-13 cells assessed as reduction in STAT5 phosphorylation at 15 nM by Western blot analysis; format: cell-based; conditions: time 0-12 hrs, TDE = time-dependent effect
# [19] = molecular target: Receptor-type tyrosine-protein kinase FLT3 (Homo sapiens) (UniProt P36888); test: Inhibition of FLT3 in human MV4-11 cells assessed as reduction in AKT phosphorylation at 15 nM by Western blot analysis; format: cell-based; conditions: time 0-12 hrs, TDE = time-dependent effect
# [20] = test system: Receptor-type tyrosine-protein kinase FLT3 (Homo sapiens), P36888 [UNDEFINED MUTATION]; test: Induction of FLT3-ITD degradation in human MOLM-13 cells after 24 hrs by Western blot analysis; format: cell-based
# [21] = molecular target: Receptor-type tyrosine-protein kinase FLT3 (Homo sapiens) (UniProt P36888); test: Inhibition of FLT3 in human MOLM-13 cells assessed as reduction in AKT phosphorylation at 15 nM by Western blot analysis; format: cell-based; conditions: time 0-12 hrs, TDE = time-dependent effect
# [22] = molecular target: Mast/stem cell growth factor receptor Kit (Homo sapiens) (UniProt P10721); test: Inhibition of KIT in human MOLM-13 cells assessed as reduction in STAT3 phosphorylation at 5 to 25 nM after 24 hrs by Western blot analysis; format: cell-based; conditions: dose 5-25 nM
# MOLM-13 [23] = test: Induction of apoptosis in human MOLM-13 cells assessed as upregulation of cleaved caspase-3 level at 15 nM by Western blot analysis; format: functional, cell-based; conditions: time 0-12 hrs, TDE = time-dependent effect
# [24] = test system: Receptor-type tyrosine-protein kinase FLT3 (Homo sapiens), P36888 [UNDEFINED MUTATION]; test: Induction of FLT3-ITD degradation in human MV4-11 cells after 24 hrs by Western blot analysis; format: cell-based
# MOLM-13 [25] = test: Induction of apoptosis in human MOLM-13 cells after 48 hrs by Annexin-V/PI staining based flow cytometry; format: functional, cell-based; conditions: dose 1.25-10 nM
# [26] = molecular target: Receptor-type tyrosine-protein kinase FLT3 (Homo sapiens) (UniProt P36888); test: Inhibition of FLT3 in human MOLM-13 cells assessed as reduction in FLT3 phosphorylation at 15 nM by Western blot analysis; format: cell-based; conditions: time 0-12 hrs, TDE = time-dependent effect
# MV4-11 [27] = test: Antitumor activity against human MV4-11 cells xenografted in NOD/SCID mouse assessed as reduction in CD45-positive cells in bone marrow at 3 mg/kg/day, iv administered for 12 days by flow cytometry analysis (reference value: 32.23 %); format: functional; set-up: scale not given: the % may be the effect or the level left; conditions: time 12 day
# [28] = molecular target: Mast/stem cell growth factor receptor Kit (Homo sapiens) (UniProt P10721); test: Induction of KIT degradation in human MV4-11 cells at 0 to 25 nM after 24 hrs by Western blot analysis; format: cell-based; conditions: dose 0-25 nM
# [29] = molecular target: Receptor-type tyrosine-protein kinase FLT3 (Homo sapiens) (UniProt P36888); test: Inhibition of FLT3 in human MOLM-13 cells assessed as reduction in ERK phosphorylation at 15 nM by Western blot analysis; format: cell-based; conditions: time 0-12 hrs, TDE = time-dependent effect
# [30] = test system: Receptor-type tyrosine-protein kinase FLT3 (Homo sapiens), P36888 [UNDEFINED MUTATION]; test: Induction of FLT3-ITD degradation in human MV4-11 cells at 20 nM pretreated with MG132 for 2 hrs followed compound addition for 6 hrs by Western blot analysis; format: cell-based
# MOLM-13 [31] = test: Induction of apoptosis in human MOLM-13 cells assessed as downregulation of Mcl-1 level at 15 nM measured upto 12 hrs by Western blot analysis; format: functional, cell-based; conditions: time hrs <=12
# [32] = molecular target: Platelet-derived growth factor receptor beta (Homo sapiens) (UniProt P09619); test: Induction of PDGFR degradation in human MV4-11 cells at 0 to 25 nM after 24 hrs by Western blot analysis; format: cell-based; conditions: dose 0-25 nM
# [33] = molecular target: Mast/stem cell growth factor receptor Kit (Homo sapiens) (UniProt P10721); test: Inhibition of KIT in human MOLM-13 cells assessed as reduction in PI3K phosphorylation at 5 to 25 nM after 24 hrs by Western blot analysis; format: cell-based; conditions: dose 5-25 nM
# [34] = molecular target: Mast/stem cell growth factor receptor Kit (Homo sapiens) (UniProt P10721); test: Inhibition of KIT in human MV4-11 cells assessed as reduction in PI3K phosphorylation at 5 to 25 nM after 24 hrs by Western blot analysis; format: cell-based; conditions: dose 5-25 nM
# [35] = Toxicity in NOD/SCID mouse xenografted with human MV4-11 cells assessed as effect on body weight at 3 mg/kg/day, iv administered for 12 hrs; format: organism-based; conditions: in vivo
# MOLM-13 [36] = test: Reduction in intracellular ROS level in human MOLM-13 cells measured after 12 hrs by DCFH-DA probe based flow cytometry; format: functional, cell-based; conditions: dose 25-200 nM
# Mast/stem cell growth factor receptor Kit (Homo sapiens), sequence (P10721 whole entry): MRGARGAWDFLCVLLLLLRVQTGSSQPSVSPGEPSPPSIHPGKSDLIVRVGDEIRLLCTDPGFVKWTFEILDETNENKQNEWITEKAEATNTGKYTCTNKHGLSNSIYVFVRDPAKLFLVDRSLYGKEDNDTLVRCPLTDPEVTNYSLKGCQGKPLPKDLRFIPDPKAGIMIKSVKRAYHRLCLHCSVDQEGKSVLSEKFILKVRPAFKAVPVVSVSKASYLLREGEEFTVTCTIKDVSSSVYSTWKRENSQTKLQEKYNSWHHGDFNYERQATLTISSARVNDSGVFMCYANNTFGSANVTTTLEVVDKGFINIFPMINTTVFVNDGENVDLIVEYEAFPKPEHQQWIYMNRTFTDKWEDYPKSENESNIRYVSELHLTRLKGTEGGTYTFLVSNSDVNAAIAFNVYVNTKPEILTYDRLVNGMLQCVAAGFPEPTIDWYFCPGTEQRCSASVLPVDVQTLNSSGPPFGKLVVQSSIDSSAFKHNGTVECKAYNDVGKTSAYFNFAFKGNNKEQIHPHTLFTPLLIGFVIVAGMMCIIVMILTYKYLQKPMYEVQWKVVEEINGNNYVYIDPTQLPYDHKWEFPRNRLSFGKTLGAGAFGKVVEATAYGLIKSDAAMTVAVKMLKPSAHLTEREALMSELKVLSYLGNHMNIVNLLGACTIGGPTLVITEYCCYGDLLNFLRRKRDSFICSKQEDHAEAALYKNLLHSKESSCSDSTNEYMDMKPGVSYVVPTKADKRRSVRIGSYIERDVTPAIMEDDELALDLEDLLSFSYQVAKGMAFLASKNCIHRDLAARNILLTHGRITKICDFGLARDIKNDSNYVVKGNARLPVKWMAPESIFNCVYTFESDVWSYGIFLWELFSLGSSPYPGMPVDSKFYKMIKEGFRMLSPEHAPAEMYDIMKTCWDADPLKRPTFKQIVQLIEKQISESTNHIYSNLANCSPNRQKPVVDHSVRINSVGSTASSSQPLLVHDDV
# Receptor-type tyrosine-protein kinase FLT3 (Homo sapiens), sequence (P36888 whole entry): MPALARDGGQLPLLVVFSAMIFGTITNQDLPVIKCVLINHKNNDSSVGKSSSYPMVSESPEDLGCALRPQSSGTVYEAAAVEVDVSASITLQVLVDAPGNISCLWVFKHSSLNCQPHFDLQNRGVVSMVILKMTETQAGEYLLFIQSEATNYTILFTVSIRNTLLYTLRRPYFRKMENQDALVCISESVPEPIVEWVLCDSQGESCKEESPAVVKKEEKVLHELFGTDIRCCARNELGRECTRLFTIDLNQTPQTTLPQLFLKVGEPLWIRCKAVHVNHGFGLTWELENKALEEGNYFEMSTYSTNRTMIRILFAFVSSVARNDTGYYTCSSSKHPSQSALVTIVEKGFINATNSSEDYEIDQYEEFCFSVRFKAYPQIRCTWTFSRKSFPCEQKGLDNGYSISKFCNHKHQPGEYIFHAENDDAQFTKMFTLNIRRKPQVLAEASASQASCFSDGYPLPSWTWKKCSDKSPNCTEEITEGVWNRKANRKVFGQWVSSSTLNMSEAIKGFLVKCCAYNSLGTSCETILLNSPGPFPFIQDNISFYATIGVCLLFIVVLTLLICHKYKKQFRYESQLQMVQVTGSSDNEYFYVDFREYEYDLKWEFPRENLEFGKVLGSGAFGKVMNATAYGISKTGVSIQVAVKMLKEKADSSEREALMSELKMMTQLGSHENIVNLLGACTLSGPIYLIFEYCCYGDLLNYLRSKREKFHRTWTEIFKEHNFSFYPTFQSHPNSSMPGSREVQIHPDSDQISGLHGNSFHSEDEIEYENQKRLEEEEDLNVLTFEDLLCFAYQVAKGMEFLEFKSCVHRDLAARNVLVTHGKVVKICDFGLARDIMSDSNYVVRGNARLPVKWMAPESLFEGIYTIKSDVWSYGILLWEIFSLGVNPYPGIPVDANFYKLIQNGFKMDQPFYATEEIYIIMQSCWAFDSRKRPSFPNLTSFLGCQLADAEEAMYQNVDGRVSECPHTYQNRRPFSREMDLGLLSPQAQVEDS
# Receptor-type tyrosine-protein kinase FLT3 (Homo sapiens), P36888 [UNDEFINED MUTATION], sequence (P36888 whole entry, looked up, change not shown): as the sequence (P36888 whole entry) above
# Platelet-derived growth factor receptor beta (Homo sapiens), sequence (P09619 whole entry): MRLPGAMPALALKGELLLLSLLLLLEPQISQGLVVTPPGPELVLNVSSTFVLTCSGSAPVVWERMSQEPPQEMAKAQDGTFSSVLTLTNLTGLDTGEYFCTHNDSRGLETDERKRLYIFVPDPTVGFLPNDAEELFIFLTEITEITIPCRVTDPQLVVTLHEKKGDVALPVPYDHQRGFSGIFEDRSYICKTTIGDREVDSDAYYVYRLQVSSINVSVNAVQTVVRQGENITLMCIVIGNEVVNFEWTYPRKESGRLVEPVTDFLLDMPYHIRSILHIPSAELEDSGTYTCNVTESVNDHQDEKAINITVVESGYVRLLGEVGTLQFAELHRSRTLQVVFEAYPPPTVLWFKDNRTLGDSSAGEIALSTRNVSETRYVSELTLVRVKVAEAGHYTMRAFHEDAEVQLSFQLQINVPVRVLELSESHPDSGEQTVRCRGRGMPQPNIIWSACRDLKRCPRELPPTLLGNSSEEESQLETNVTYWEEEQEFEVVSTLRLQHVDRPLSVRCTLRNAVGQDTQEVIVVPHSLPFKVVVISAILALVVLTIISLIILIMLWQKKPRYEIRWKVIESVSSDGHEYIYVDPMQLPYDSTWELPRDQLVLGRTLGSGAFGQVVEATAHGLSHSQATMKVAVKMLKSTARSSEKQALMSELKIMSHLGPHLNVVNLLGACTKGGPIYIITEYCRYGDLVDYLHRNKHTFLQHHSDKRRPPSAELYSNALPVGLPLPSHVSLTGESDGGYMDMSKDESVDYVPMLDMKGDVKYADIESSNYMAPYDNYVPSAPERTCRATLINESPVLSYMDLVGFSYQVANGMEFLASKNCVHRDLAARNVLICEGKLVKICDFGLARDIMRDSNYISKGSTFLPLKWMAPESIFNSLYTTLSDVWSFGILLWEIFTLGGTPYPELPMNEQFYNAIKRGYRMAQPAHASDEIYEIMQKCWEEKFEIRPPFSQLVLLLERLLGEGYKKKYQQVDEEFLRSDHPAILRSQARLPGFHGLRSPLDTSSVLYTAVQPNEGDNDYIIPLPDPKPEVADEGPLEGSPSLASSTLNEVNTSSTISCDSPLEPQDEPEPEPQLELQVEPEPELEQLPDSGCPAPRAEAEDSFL
compound,measurement,setting,value
Nc1c(-c2nc3cc(N4CCN(C(=O)CCCCC#Cc5cccc6c5C(=O)N(C5CCC(=O)NC5=O)C6=O)CC4)ccc3[nH]2)c(=O)[nH]c2cccc(F)c12 (configuration not stated),IC50,MV4-11 [1],0.635 µM
same,IC50,MOLM-13 [2],0.306 µM
Nc1c(-c2nc3cc(N4CCN(C(=O)CCCCNc5cccc6c5C(=O)N(C5CCC(=O)NC5=O)C6=O)CC4)ccc3[nH]2)c(=O)[nH]c2cccc(F)c12 (configuration not stated),Activity,[3],Active
same,Activity,MV4-11 [4],Dose-Dependent Effect
same,Activity,MV4-11 [5],Tde
same,Activity,MV4-11 [6],Active
same,inhibition,[7],Tde
same,inhibition,[8],Tde
same,inhibition,[9],Tde
same,Activity,MV4-11 [10],Active
same,inhibition,[11],Active
same,Activity,MV4-11 [12],Dose-Dependent Effect
same,Activity,[13],Active
same,Activity,MOLM-13 [14],Active
same,Activity,[15],inactive
same,Activity,[16],Active
same,Activity,[17],inactive
same,inhibition,[18],Tde
same,inhibition,[19],Tde
same,Activity,[20],Dose-Dependent Effect
same,IC50,MV4-11 [1],0.0187 µM
same,inhibition,[21],Tde
same,inhibition,[22],Active
same,Activity,MOLM-13 [23],Tde
same,Activity,[24],Dose-Dependent Effect
same,Activity,MOLM-13 [25],Dose-Dependent Effect
same,inhibition,[26],Tde
same,Activity,MV4-11 [27],5.25%
same,Activity,[28],Active
same,inhibition,[29],Tde
same,Activity,[30],inactive
same,Activity,MOLM-13 [31],Active
same,Activity,[32],Active
same,inhibition,[33],Active
same,inhibition,[34],Active
same,Activity,[35],Non-Toxic
same,Activity,MOLM-13 [36],Dose-Dependent Effect
same,IC50,MOLM-13 [2],0.0101 µM
Cc1ncsc1-c1ccc(CNC(=O)[C@H]2C[C@H](O)CN2C(=O)[C@H](NC(=O)CCCCC(=O)N2CCN(c3ccc4[nH]c(-c5c(N)c6c(F)cccc6[nH]c5=O)nc4c3)CC2)C(C)(C)C)cc1,IC50,MV4-11 [1],0.415 µM
same,IC50,MOLM-13 [2],0.185 µM
Nc1c(-c2nc3cc(N4CCN(CCCCCC(=O)Nc5cccc6c5C(=O)N(C5CCC(=O)NC5=O)C6=O)CC4)ccc3[nH]2)c(=O)[nH]c2cccc(F)c12 (configuration not stated),IC50,MV4-11 [1],0.557 µM
same,IC50,MOLM-13 [2],> 1 µM
Nc1c(-c2nc3cc(N4CCN(CCCC(=O)Nc5cccc6c5C(=O)N(C5CCC(=O)NC5=O)C6=O)CC4)ccc3[nH]2)c(=O)[nH]c2cccc(F)c12 (configuration not stated),IC50,MV4-11 [1],0.739 µM
same,IC50,MOLM-13 [2],0.419 µM
CN1C(=O)CCC(N2C(=O)c3cccc(NCCCCCC(=O)N4CCN(c5ccc6[nH]c(-c7c(N)c8c(F)cccc8[nH]c7=O)nc6c5)CC4)c3C2=O)C1=O (configuration not stated),Activity,[20],Dose-Dependent Effect
same,IC50,MV4-11 [1],0.466 µM
same,Activity,[24],Dose-Dependent Effect
same,IC50,MOLM-13 [2],0.141 µM
Nc1c(-c2nc3cc(N4CCN(CCCCCC(=O)Nc5cccc6c5CN(C5CCC(=O)NC5=O)C6=O)CC4)ccc3[nH]2)c(=O)[nH]c2cccc(F)c12 (configuration not stated),IC50,MV4-11 [1],> 1 µM
same,IC50,MOLM-13 [2],> 1 µM
Nc1c(-c2nc3cc(N4CCN(CCCCC(=O)Nc5cccc6c5C(=O)N(C5CCC(=O)NC5=O)C6=O)CC4)ccc3[nH]2)c(=O)[nH]c2cccc(F)c12 (configuration not stated),IC50,MV4-11 [1],0.727 µM
same,IC50,MOLM-13 [2],> 1 µM
